Test results from patent publication US6521619B2, “Aryl phenylcyclopropyl sulfide derivatives and their use as cell adhesion inhibiting anti-inflammatory and immune suppressive agents” (Icos Corporation, priority 2000, dated 2003).

Experiments:
[1] = target: T1, ICAM-1/LFA-1 interaction (recombinant LFA-1, biotinylated recombinant ICAM-1/Ig) (Homo sapiens, UniProt P20701); experiment: ICAM-1/LFA-1 Biochemical Interaction Assay (46A); format: binding; details: for inhibition at 2 µM: read-out: % inhibition
T1 construct: Recombinant LFA-1 (100 mL of 0.7 mg/ml, ICOS Corporation) in D-PBS is then added to each well
Method: Compounds that antagonize the interaction between ICAM-1 and LFA-1 can be identified, and their activities quantitated, using both biochemical and cell-based adhesion assays. A primary biochemical assay, described below as assay 46A, was utilized to measure the ability of the present compounds to block the interaction between the integrin LFA-1 and its adhesion partner ICAM-1.
46A. ICAM-1/LFA-1 Biochemical Interaction Assay
In the biochemical assay, 100 mL of anti-LFA-1 antibody (ICOS Corporation) at a concentration of 5 mg/ml in Dulbecco's phosphate-buffered saline (D-PBS) is used to coat wells of a 96-well microtiter plate overnight at 4° C. The wells are then washed twice with wash buffer (D-PBS w/o Ca^++ or Mg^++, 0.05% Tween 20) and blocked by addition of 200 mL of D-PBS, 5% fish skin gelatin. Recombinant LFA-1 (100 mL of 0.7 mg/ml, ICOS Corporation) in D-PBS is then added to each well. Incubation continues for 1 hour at room temperature and the wells are washed twice with wash buffer. Serial dilutions of compounds being assayed as ICAM-1/LFA-1 antagonists, prepared as 10 mM stock solutions in dimethyl sulfoxide (DMSO), are diluted in D-PBS, 2 mM MgCl2, 1% fish skin gelatin and 50 mL of each dilution added to duplicate wells. This is followed by addition of […] of 0.8 mg/ml biotinylated recombinant ICAM-1/Ig (ICOS Corporation) to the wells and the plates are incubated at room temperature for 1 hour The wells are then washed twice with wash buffer and 100 mL of Europium-labeled Streptavidin (Wallac Oy) diluted 1:100 in Delfia assay buffer (Wallac Oy) are added to the wells. Incubation proceeds for 1 hour at room temperature. […] Incubation proceeds for 5 minutes with constant mixing.
where “background” refers to wells that are not coated with anti-LFA-1 antibody.

[2] = tested on: JY-8 cells (expressing LFA-1) adhering to immobilized ICAM-1; experiment: ICAM-1/JY-8 Cell Adhesion Assay (46B); format: cell-based, human; details: JY-8 cell adhesion to ICAM-1; for inhibition at 1 µM: @ 1 μM compound (cell); for inhibition at 2 µM / % inhibition: @ 2 μM compound (cell)
Method: Biologically relevant activity of the compounds in this invention was confirmed using a cell-based adhesion assay, (described below as assay 46B) which measured the ability of the present compounds to block the adherence of JY-8 cells (a human EBV-transformed B cell line expressing LFA-1 on its surface) to immobilized ICAM-1.
46B. ICAM-1 /JY-8 Cell Adhesion Assay
For measurement of inhibitory activity in the cell-based adhesion assay, 96-well microtiter plates are coated with 70 μL of recombinant ICAM-1/g (ICOS Corporation) at a concentration of 5 μg/mL in D-PBS w/o Ca^++ or Mg^++ overnight at 4° C. The wells are then washed twice with D-PBS and blocked by addition of 200 μL of D-PBS, 5% fish skin gelatin by incubation for 1 hour at room temperature. Fluorescent tagged JY-8 cells (a human EBV-transformed B cell line expressing LFA-1 on its surface; 50 μL at 2×10^6 cells/ml in RPMI 1640 (standard cell culture medium)/1% fetal bovine serum) are added to the wells. For fluorescent labeling of JY-8 cells, 5×10^6 cells washed once in RPMI 1640 are resuspended in 1 mL of RPMI 1640 containing 2 μM Calceiun AM (MolecularProbes), are incubated at 37° C for 30 minutes and washed once with RPMI-1640/1% fetal bovine serum. Dilutions of compounds to be assayed for ICAM-1/LFA-1 antagonistic activity are prepared in RPMI-1640/1% fetal bovine serum from 10 mM stock solutions in DMSO and 50 μL are added to duplicate wells. Microtiter plates are incubated for 45 minutes at room temperature and the wells are washed gently once with RPMI-1640/1% fetal bovine serum. Fluorescent intensity is measured in a fluorescent plate reader with an excitation wavelength at 485 nm and an emission wavelength at 530 nm. The percent inhibition of a candidate compound at a given concentration is calculated using the following equation: [formula]
and these concentration/inhibition data are used to generate dose response curves, from which IC50 values are derived.

T1 sequence (P20701 26-1170): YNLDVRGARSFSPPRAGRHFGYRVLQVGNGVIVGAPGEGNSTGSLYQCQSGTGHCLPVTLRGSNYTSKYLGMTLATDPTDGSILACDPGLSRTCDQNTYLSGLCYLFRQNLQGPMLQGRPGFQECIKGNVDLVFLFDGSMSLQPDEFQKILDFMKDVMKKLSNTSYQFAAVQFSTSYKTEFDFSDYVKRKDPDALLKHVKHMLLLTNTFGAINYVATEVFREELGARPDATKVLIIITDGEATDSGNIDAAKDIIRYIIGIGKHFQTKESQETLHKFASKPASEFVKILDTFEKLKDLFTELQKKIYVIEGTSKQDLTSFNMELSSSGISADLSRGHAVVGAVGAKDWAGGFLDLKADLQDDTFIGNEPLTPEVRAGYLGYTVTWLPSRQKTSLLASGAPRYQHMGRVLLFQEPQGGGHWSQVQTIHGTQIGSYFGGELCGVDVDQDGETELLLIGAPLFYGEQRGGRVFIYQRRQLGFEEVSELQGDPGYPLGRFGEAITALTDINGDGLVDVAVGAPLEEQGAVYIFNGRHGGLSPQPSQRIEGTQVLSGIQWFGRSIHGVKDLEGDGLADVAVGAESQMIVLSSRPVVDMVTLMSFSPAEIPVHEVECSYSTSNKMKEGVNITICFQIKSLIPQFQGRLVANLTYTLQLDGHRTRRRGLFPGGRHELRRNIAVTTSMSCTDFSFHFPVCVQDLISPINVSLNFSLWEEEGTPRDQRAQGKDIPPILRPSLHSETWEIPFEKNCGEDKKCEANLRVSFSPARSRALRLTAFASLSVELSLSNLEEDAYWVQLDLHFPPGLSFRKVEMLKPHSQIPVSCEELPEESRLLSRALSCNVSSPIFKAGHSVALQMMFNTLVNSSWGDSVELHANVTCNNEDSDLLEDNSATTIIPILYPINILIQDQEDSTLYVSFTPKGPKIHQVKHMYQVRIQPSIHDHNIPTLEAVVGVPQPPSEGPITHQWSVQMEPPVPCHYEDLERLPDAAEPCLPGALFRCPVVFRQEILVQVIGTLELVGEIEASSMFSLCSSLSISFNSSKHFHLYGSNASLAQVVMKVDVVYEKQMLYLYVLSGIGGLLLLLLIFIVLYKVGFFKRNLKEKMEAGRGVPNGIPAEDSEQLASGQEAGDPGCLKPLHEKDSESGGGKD
T1 sequence (P05107 23-769 partner): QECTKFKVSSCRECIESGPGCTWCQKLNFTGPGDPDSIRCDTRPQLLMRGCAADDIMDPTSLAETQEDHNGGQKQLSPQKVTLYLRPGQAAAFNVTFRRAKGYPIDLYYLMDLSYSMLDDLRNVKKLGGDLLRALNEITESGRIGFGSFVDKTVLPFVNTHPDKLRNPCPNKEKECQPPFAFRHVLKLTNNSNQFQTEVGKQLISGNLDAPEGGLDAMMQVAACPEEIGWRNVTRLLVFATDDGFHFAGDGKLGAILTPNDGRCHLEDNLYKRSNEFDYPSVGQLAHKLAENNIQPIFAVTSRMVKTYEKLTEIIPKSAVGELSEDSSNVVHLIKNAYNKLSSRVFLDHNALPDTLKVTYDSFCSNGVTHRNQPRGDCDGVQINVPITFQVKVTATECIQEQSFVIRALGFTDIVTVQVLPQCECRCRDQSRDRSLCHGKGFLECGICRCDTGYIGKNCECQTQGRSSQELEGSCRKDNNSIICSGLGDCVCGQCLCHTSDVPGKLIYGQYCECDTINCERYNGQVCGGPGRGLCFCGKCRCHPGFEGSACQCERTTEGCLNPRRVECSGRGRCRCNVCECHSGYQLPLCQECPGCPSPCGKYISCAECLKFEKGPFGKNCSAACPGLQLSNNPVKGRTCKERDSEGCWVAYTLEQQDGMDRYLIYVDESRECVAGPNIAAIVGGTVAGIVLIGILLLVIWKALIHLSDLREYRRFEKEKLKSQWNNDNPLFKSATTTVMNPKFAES

| inhibition at 4 µM ([1]; @ 4 μM compound) [%] | inhibition at 2 µM ([1]; @ 2 μM compound) [%] | Compound | inhibition at 2 µM ([2]; Homo sapiens) [%] | also measured |
| --- | --- | --- | --- | --- |
| 95 |  | O=C(NCCCN1CCCC1=O)C1CC1c1ccc(Sc2ccccc2N2CCCCC2)c(C(F)(F)F)c1 (racemic) [Example 9, (±)-(2-Piperidin-1-ylphenyl)[2-trifluoromethyl-4-(trans-(2-((3-(1-pyrrolidin-2-onyl)-prop-1-ylamino)carbonyl)cycloprop1-yl)phenyl]sulfide] |  | inhibition at 4 µM ([2]; Homo sapiens, @ 4 μM compound): 76% |
| 93 |  | CN(CCCN1CCCC1=O)C(=O)C1CC1c1ccc(Sc2ccccc2N2CCOCC2)c(C(F)(F)F)c1 (racemic) [Example 13, (±)-(2-Morpholin-1-ylphenyl)[2-trifluoromethyl-2-(trans-(2-((3-(1-pyrrolidin-2-onyl)-propyl-N-methylamino)carbonyl)cycloprop-1-yl)phenyl]sulfide] |  | inhibition at 1 µM ([2]; Homo sapiens): 86% |
| 92 |  | O=C(NCCCN1CCCC1=O)C1CC1c1ccc(Sc2ccccc2Br)c(Cl)c1Cl (racemic) [Example 14, (±)-(2-Bromophenyl)[2,3-dichloro-4-(trans-(2-((3-(1-pyrrolidin-2-onyl)-prop-1-ylamino)carbonyl)cycloprop-1-yl)phenyl]sulfide] |  | inhibition at 1 µM ([2]; Homo sapiens): 80% |
|  | 96 | CC(C)c1ccccc1Sc1ccc(C2CC2C(=O)NCCC(=O)O)c(Cl)c1Cl (racemic) [Example 16, (±)-(2-Isopropylphenyl)[2,3-dichloro-4-(trans-(2-(2-carboxyethylamino)carbonyl)cycloprop-1-yl)phenyl]sulfide] | 88 |  |

More lines, now with the values behind:

| Compound | inhibition at 4 µM ([1]; @ 4 μM compound) [%] | inhibition at 2 µM ([1]; @ 2 μM compound) [%] | inhibition at 2 µM ([2]; Homo sapiens) [%] | also measured |
| --- | --- | --- | --- | --- |
| CC(C)c1ccccc1Sc1ccc(C2CC2C(=O)N2CCC(C(=O)O)CC2)c(Cl)c1Cl (racemic) [Example 18, (±)-(2-Isopropylphenyl)[2,3-dichloro-4-(trans-(2-(4-carboxypiperidin-1-yl)carbonyl)cycloprop-1-yl)phenyl]sulfide] |  | 93 | 84 |  |
| CC(=O)N1CCN(C(=O)C2CC2c2ccc(Sc3ccccc3C(C)C)c(Cl)c2Cl)CC1 (racemic) [Example 21, (±)-(2-Isopropylphenyl)[2,3-dichloro-4-(trans-(2-(4-acetylpiperazin-1-yl)carbonyl)cycloprop-1-yl)phenyl]sulfide] |  | 94 | 88 |  |
| (±)-(2-Piperidin-1-ylphenyl)[2-trifluoromethyl-4-(trans-(2-((3-(1-pyrrolidin-2-onyl)-prop-1-ylamino)carbonyl)cycloprop1-yl)phenyl]sulfide [Example 9] |  |  |  | % inhibition ([1]; @ 2 μM compound): 97% @ 2 μM; % inhibition [2]: 89% @ 2 μM |
| (±)-(3-Morpholin-1-ylphenyl)[2-trifluoromethyl-4-(trans-(2-((3-(1-pyrrolidin-2-onyl)-prop-1-ylamino)carbonyl)cycloprop-1-yl)phenyl]sulfide [Example 11] |  |  |  | % inhibition ([1]; @ 4 μM compound): 96% @ 4 μM; % inhibition [2]: 86% @ 2 μM |
